Test results published in EP4570800A1, “CRYSTAL FORM OF PYRIDINOPYRIMIDINONE COMPOUND, ACID SALT THEREOF, CRYSTAL FORM OF ACID SALT THEREOF, AND USE” (Wuhan Humanwell Innovative Drug Research and Development …, priority 2022, dated 2024).
Counter-ions that a name gives are not always drawn.

Key:
LOVO colorectal cancer = assay: In vivo efficacy test on LOVO colorectal cancer; parameters: species or system mice; conditions: 50 mg/kg, BID
Protocol: After one week of adaptive feeding of mice, LOVO cells in a logarithmic phase were resuspended in serum-free F12K, 5 × 10^6 LOVO cells were inoculated subcutaneously at the right flank at 100 µL per mouse, and tumor growth was observed regularly. When the tumor grew to an average volume of 150 to 200 mm^3, the mice were randomly divided into a model group and an administration group based on the tumor size and body weight. The tumor size and body weight were measured and recorded before and during the administration. After the treatment, the tumor size in the model group was compared with that in the administration group to determine the efficacy.

[1] = tested on: Mia Paca-2 pancreatic cancer; assay: In vivo efficacy test on Mia Paca-2 pancreatic cancer; parameters: species or system mice; conditions: Mia Paca-2, BID
Protocol: After one week of adaptive feeding of mice, Mia Paca-2 cells in a logarithmic phase were resuspended in serum-free DMEM, and then mixed with Matrigel in a ratio of 1: 1. 1 × 10^7 Mia Paca-2 cells were inoculated subcutaneously at the right flank at 100 µL per mouse, and tumor growth was observed regularly. When the tumor grew to an average volume of 150 to 200 mm^3, the mice were randomly divided into a model group and an administration group (single drug, in combination with trametinib) based on the tumor size and body weight. The tumor size and body weight were measured and recorded before and during the administration. After the treatment, the tumor size in the model group was compared with that in the administration group to determine the efficacy.

[2] = Solid state stability (XRPD and HPLC); assay type: physicochemical
Protocol: The purity test, dynamic solubility test, and stability test in the assay were measured with an Agilent 1260 high-performance liquid chromatograph, and the salt formation molar ratio of ions was tested by ion chromatography, and the analytical conditions are shown in Table 5 and Table 6.
Table 56 Summary of solid state stability evaluation

[3] = Dynamic solubility in water, SGF, FaSSIF and FeSSIF; conditions: for S: solubility: 37°C, solid feed concentration 10 mg/mL; for pH: pH value of the filtrate
Protocol: 100 mg of NaCl and 50 mg of Triton X-100 were weighed into a 50 mL volumetric flask, and purified water was added to complete dissolution. 816 µL of 1 M hydrochloric acid was added thereto, and the pH was adjusted to 1.8 with 1 M hydrochloric acid or 1 M NaOH solution. Purified water was added to make up to volume.
340 mg of anhydrous NaH2PO4, 42 mg of NaOH, and 620 mg of NaCl were weighed into a 100 mL volumetric flask. Purified water was added to complete dissolution. The pH was adjusted to 6.5 with 1 M hydrochloric acid or 1 M NaOH solution. Purified water was added to make up to volume. 110 mg of SIF powder was then weighed into a 50 mL volumetric flask, added with the above solution to complete dissolution and make up to volume.
About 90 mL of purified water was added to complete dissolution, and the pH was adjusted to 5.0 with 1 M hydrochloric acid or 1 M NaOH solution. Purified water was added to make up to volume. 560 mg of SIF powder was then weighed into a 50 mL volumetric flask, added with the above solution to complete dissolution and make up to volume.
Rotating mixing was carried out at 37°C at a solid feed concentration of 10 mg/mL (calculated as the compound of formula I). […] After sampling at each time point, the samples were centrifuged (10000 rpm) and filtered (0.45 µm PTFE filter head), and the HPLC concentration and pH value of the filtrate were measured.

[4] = XRPD after 25°C/60%RH/open, 1 week
[5] = XRPD after 40°C/75%RH/open, 1 week

SMILES	HPLC results Purity (area%) ([2]; 25°C/60%RH/open, 1 week)	HPLC results Purity (area%) ([2]; 40°C/75%RH/open, 1 week)	HPLC results Purity (area%) ([2]; Onset)	Crystal form [2, 4]	Crystal form [2, 5]	S: solubility ([3]; FaSSIF, 1 hour, 60 min)	S: solubility ([3]; FaSSIF, 4 hours, 240 min)	S: solubility ([3]; FaSSIF, 24 hours, 1440 min)	S: solubility ([3]; H2O, 1 hour, 60 min)	S: solubility ([3]; H2O, 4 hours, 240 min)	S: solubility ([3]; H2O, 24 hours, 1440 min)	S: solubility ([3]; SGF, 1 hour, 60 min)	S: solubility ([3]; SGF, 4 hours, 240 min)	S: solubility ([3]; SGF, 24 hours, 1440 min)	pH ([3]; FaSSIF, 1 hour)	pH ([3]; FaSSIF, 4 hours)	pH ([3]; FaSSIF, 24 hours)	pH ([3]; FeSSIF, 1 hour)	pH ([3]; FeSSIF, 4 hours)	pH ([3]; FeSSIF, 24 hours)	other results
Cc1nc(N[C@H](C)c2cccc(C(F)F)c2F)c2cn(C3(C(F)F)CC3)c(=O)cc2n1 [Control compound 2, reference compound]																					At the end of treatment Average tumor weight (LOVO colorectal cancer): 1.08 g; Average tumor weight at the end of the treatment ([1]; 50 mg/kg): 0.46 g
Cc1nc(N[C@H](C)c2cccc(S(F)(F)(F)(F)F)c2)c2cn(C3(CF)CC3)c(=O)cc2n1 [Crystal form A of ethanesulfonate salt]	99.15 area%	99.29 area%	99.10 area%	Crystal form A of ethanesulfonate salt	Crystal form A of ethanesulfonate salt	620 µg/mL	1610 µg/mL	2520 µg/mL	10060 µg/mL	9810 µg/mL	10080 µg/mL	10420 µg/mL	10130 µg/mL	10110 µg/mL	4.5	4.2	3.7	4.8	4.8	4.7	S: solubility ([3]; FeSSIF, 1 hour, 60 min): 2790 µg/mL; S: solubility ([3]; FeSSIF, 4 hours, 240 min): 3620 µg/mL; S: solubility ([3]; FeSSIF, 24 hours, 1440 min): 3700 µg/mL; pH ([3]; H2O, 1 hour): 2.9; pH ([3]; H2O, 4 hours): 3.1; pH ([3]; H2O, 24 hours): 2.8; pH ([3]; SGF, 1 hour): 1.6; pH ([3]; SGF, 4 hours): 1.5; pH ([3]; SGF, 24 hours): 1.5
Cc1nc(N[C@H](C)c2cccc(S(F)(F)(F)(F)F)c2)c2cn(C3(CF)CC3)c(=O)cc2n1 [Crystal form A of fumarate salt]	98.67 area%	98.70 area%	98.67 area%	Crystal form A of fumarate salt	Crystal form A of fumarate salt	360 µg/mL	320 µg/mL	320 µg/mL	550 µg/mL	570 µg/mL	610 µg/mL	1960 µg/mL	1940 µg/mL	2090 µg/mL	4.8	4.6	4.3	4.6	4.8	4.7	pH ([3]; H2O, 1 hour): 4.2; pH ([3]; H2O, 4 hours): 4.2; pH ([3]; H2O, 24 hours): 4.1; pH ([3]; SGF, 1 hour): 1.8; pH ([3]; SGF, 4 hours): 2.0; pH ([3]; SGF, 24 hours): 1.7
Cc1nc(N[C@H](C)c2cccc(S(F)(F)(F)(F)F)c2)c2cn(C3(CF)CC3)c(=O)cc2n1 [Crystal form A of methanesulfonate salt]	99.21 area%	99.26 area%	99.18 area%	Crystal form A of methanesulfonate salt	Crystal form A of methanesulfonate salt	1440 µg/mL	1610 µg/mL	1830 µg/mL	10250 µg/mL	10160 µg/mL	9920 µg/mL	9760 µg/mL	9880 µg/mL	10130 µg/mL	4.3	4.4	4.0	4.8	4.8	4.8	S: solubility ([3]; FeSSIF, 1 hour, 60 min): 4040 µg/mL; S: solubility ([3]; FeSSIF, 4 hours, 240 min): 4160 µg/mL; S: solubility ([3]; FeSSIF, 24 hours, 1440 min): 4240 µg/mL; pH ([3]; H2O, 1 hour): 3.5; pH ([3]; H2O, 4 hours): 3.5; pH ([3]; H2O, 24 hours): 3.1; pH ([3]; SGF, 1 hour): 1.7; pH ([3]; SGF, 4 hours): 1.8; pH ([3]; SGF, 24 hours): 1.6
Cc1nc(N[C@H](C)c2cccc(S(F)(F)(F)(F)F)c2)c2cn(C3(CF)CC3)c(=O)cc2n1 [Crystal form B of citrate salt]	99.00 area%	99.01 area%	98.92 area%	Crystal form A of citrate salt	Crystal form A of citrate salt	790 µg/mL	1180 µg/mL	1610 µg/mL	3610 µg/mL	3600 µg/mL	3680 µg/mL	9130 µg/mL	9400 µg/mL	9290 µg/mL	4.5	3.9	3.6	4.8	4.6	4.5	S: solubility ([3]; FeSSIF, 1 hour, 60 min): 4090 µg/mL; S: solubility ([3]; FeSSIF, 4 hours, 240 min): 3520 µg/mL; S: solubility ([3]; FeSSIF, 24 hours, 1440 min): 2960 µg/mL; pH ([3]; H2O, 1 hour): 3.5; pH ([3]; H2O, 4 hours): 3.5; pH ([3]; H2O, 24 hours): 3.3; pH ([3]; SGF, 1 hour): 2.5; pH ([3]; SGF, 4 hours): 2.6; pH ([3]; SGF, 24 hours): 2.4
CC(=O)Nc1cccc(-n2c(=O)n(C3CC3)c(=O)c3c(Nc4ccc(I)cc4F)n(C)c(=O)c(C)c32)c1 [Trametinib]																					Average tumor weight at the end of the treatment ([1]; 0.125 mg/kg): 0.22 g
